Measured values from patent publication US5432164A, “C2,N^6 -disubstituted adenosine derivatives” (Novo Nordisk A/S, priority 1991, dated 1995).
Where two headings read alike, the source gives them in different places.

Columns and labels:
A1 receptor = conditions: literature, in words; cited from earlier work
mice = test: DMCM induced seizures in mice, i.p. 30 min (protection against clonic convulsions); assay type: in vivo, male NMRI mice; conditions: Mus musculus, ip, 0.5 h, read-out: DMCM-ind. seizures (ED50, mg/kg)
Experimental: DMCM INDUCED SEIZURES IN MICE, I.P.30 min.
DMCM, 15 mg/kg, i.p., clonic convulsions
DMCM is an inverse agonist at the benzodiazepine receptor, presumably producing seizures by decreasing the potency of inhibition of the GABA receptor/benzodiazepine receptor/chloride ionophore complex (1).
15 mg/kg of DMCM dissolved in 0.02N HCl (1 mg/ml) is administered i.p. in a volume of 300 μl to male NMRI mice weighing 20±2 g. This induces two different responses: a) some animals manifest a brief loss of righting reflexes or take up an upright position in which they have a mild short clonus of the upper extremities, b) other animals manifest intense clonic and tonic convulsions of all extremities often followed by death. DMCM is administered 30 min. after an intraperitoneal injection of a test compound. The latency time for the presence of intense clonic and tonic convulsions and death is noted until 15 min. after administration of DMCM. At least 5 doses of each test compound are tested with 8 mice per dose.
This method is described in more detail in Eur. J. Pharmacol. 94, 117-124, 1983.

adenosine A2 receptor = target: T1, adenosine A2 receptor (Rattus norvegicus, UniProt P30543); test: In vitro binding to adenosine A2 receptor, radioligand [3H]-CGS 21680
T1 construct: from tissue
Description: (§1) Evaluation of in vitro binding to adenosine A1 and A2 receptors.

adenosine A1 receptor = target: T2, adenosine A1 receptor (Rattus norvegicus, UniProt P25099); test: In vitro binding to adenosine A1 receptor, radioligand [3H]-L-PIA; conditions: for Ki: [3H]-L-PIA radioligand; for Ratio A2/A1: ratio of Ki A2/A1
T2 construct: from tissue
T2 sequence (P25099 1-326): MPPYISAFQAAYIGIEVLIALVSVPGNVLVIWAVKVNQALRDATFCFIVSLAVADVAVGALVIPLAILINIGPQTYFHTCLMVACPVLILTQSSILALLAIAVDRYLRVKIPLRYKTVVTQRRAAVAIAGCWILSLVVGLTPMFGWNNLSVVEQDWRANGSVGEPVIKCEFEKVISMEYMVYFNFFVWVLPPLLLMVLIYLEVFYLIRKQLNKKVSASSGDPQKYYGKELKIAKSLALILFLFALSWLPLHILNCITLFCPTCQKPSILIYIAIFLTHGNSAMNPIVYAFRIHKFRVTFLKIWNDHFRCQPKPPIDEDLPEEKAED
Description: as §1

[1] = mice, test compound i.p. 30 min before DMCM 15 mg/kg i.p., dose protecting 50% against clonic convulsions
[2] = [3H]-CGS 21680 radioligand, read-out: A2 Receptor Binding (Ki)

T1 sequence (P30543 whole entry): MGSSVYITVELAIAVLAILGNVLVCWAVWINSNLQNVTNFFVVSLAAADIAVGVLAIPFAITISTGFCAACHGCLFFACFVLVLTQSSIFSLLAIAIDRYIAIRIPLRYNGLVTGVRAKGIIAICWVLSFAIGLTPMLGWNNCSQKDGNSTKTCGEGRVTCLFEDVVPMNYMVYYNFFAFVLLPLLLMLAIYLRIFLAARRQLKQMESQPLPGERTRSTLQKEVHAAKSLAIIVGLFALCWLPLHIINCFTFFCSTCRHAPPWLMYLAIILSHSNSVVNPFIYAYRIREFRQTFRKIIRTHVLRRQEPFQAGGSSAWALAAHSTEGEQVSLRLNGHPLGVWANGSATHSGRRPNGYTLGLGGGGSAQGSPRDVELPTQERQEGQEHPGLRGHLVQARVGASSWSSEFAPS

Row | SMILES | selectivity for the A1 receptor over the A2 receptor (A1 receptor) | ED50 (mice) [mg/kg] | Ki (adenosine A2 receptor) [nM] | Ki (adenosine A1 receptor) [nM] | Ratio A2/A1 (adenosine A1 receptor) | ED50 (mice; [1]) [mg/kg] | Ki (adenosine A2 receptor; [2]) [nM]
1 | OC[C@H]1O[C@@H](n2cnc3c(NC4CCCC4)nc(Cl)nc32)[C@H](O)[C@@H]1O [2-chloro-N-cyclopentyladenosine] | most selective for the A1 receptor over the A2 receptor |  |  |  |  |  | 
2 | OC[C@H]1O[C@@H](n2cnc3c(NC4CCCC4)ncnc32)[C@H](O)[C@@H]1O [CPA, N-(cyclopentyl)adenosine, reference compound] |  | 0.2 | 173 |  |  |  | 
3 | OC[C@H]1O[C@@H](n2cnc3c(NN4CCCCC4)nc(Cl)nc32)[C@H](O)[C@@H]1O [Example 5, 2-Chloro-N-(1-piperidinyl)adenosine] |  |  |  | 4 | 173 | 0.1 | 691
4 | OC[C@H]1O[C@@H](n2cnc3c(NN4CCCCC4)nc(F)nc32)[C@H](O)[C@@H]1O [Example 9, 2-Fluoro-N-(1-piperidinyl)adenosine] |  |  |  | 4 | 289 | 0.7 | 1140
5 | OC[C@H]1O[C@@H](n2cnc3c(NN4CCCC(Oc5ccccc5)C4)nc(Cl)nc32)[C@H](O)[C@@H]1O (stereo partly shown) [Example 16, 2-Chloro-N-(3-phenoxy-1-piperidinyl)adenosine] |  |  |  | 11 | 158 | 1 | 1730
6 | OC[C@H]1O[C@@H](n2cnc3c(NN4CCC(Oc5ccccc5)CC4)nc(Cl)nc32)[C@H](O)[C@@H]1O [Example 17, 2-Chloro-N-[4-phenoxy-1-piperidinyl]adenosine] |  |  |  |  | 857 | 0.9 | 1200
7 | CC(Cc1ccccc1)Nc1ncnc2c1ncn2[C@@H]1O[C@H](CO)[C@@H](O)[C@H]1O (stereo partly drawn) [L-PIA, N-(1-phenyl-2-propyl)adenosine, reference compound] |  | 0.1 |  |  |  |  | 
